# Measured values taken from patent publication US10941143B2, “Imidazo [1,5-a]pyridine compounds and their use” (Alterity Therapeutics Limited, priority 2019, dated 2021).
# Test system: human neuroblastoma line BE(2)-M17 (M17) cells
# Experiment: Measurement of Fe efflux from cells
# Format: cell-based
# Details: M17 cells pre-loaded with 57Fe, compound 20 μM for 2 h, percentage increase of Fe in media relative to media without compound, read-out: % Fe Efflux Range
# Method: Method I: Measurement of Fe Efflux from Cells
# Compounds of the current invention were assessed for their ability to efflux iron (Fe) from a cell using the following protocol.
# The human neuroblastoma line BE(2)-M17 (M17) cell cultures were acquired from Sigma Aldrich (Catalogue #: 95011816). M17 Cells were maintained in Opti-MEM reduced serum media supplemented with 10% fetal bovine serum (Bovogen, SFBSF) and passaged twice weekly. Cells were cultured at 37° C. in the presence of 5% CO2. Culture supplies were sourced from Thermo Fisher unless otherwise stated.
# A solution of ^57Fe cold isotope was prepared by dissolving ^57Fe metal (>95% enrichment, Trace Sciences International) in concentrated HCl to give a final concentration of 573 mM. From this master solution, a 10 mM working solution was prepared in sterile water. The working solution was used within two months of preparation.
# M17 cells were loaded with iron initially by seeding into 48-well plates at a density of 0.15×10^6 cells per well in 0.5 mL media. After 48 h, old media was discarded. Fresh media was supplemented with 20 μM ^57Fe isotope, from the 10 mM ^57Fe working solution. Cells received 0.2 mL of this ^57Fe enriched media and were returned to the incubator for 20 h. The ability of experimental compounds to efflux iron was determined by the dissolution of compounds in DMSO and diluted in Hanks' Balanced Salt Solution (HBSS) for treatment of M17 cells. After ^57Fe incubation, cells were rinsed twice with HBSS and treated with 0.15 mL trial compound for 2 h at a concentration of 20 μM. All assays included a relevant vehicle (0.4%-0.8% DMSO) as well as a positive control (20 μM). Following the treatment period, 0.1 mL of media was collected from cells and the extracellular ^57Fe content was analysed via inductively coupled mass spectrometry (ICP-MS, Agilent 7700x series instrument).
# To perform this protocol the following supplies were purchased from Sigma Aldrich: anhydrous dimethyl sulfoxide (DMSO, Catalogue #: 276855), Hanks' Balanced Salt Solution supplemented with 20 mM HEPES and 4.2 mM Sodium Bicarbonate (HBSS, pH: 7.4, Catalogue #: H1387).
# After 2 h the Fe levels in the media were measured and the increase determined as a percentage increase relative to the cell media in the absence of the compound.
row,SMILES,activation at 20 µM [%]
1,Oc1ccncc1-c1nc(-c2cccc(Cl)c2O)n2ccccc12 [Compound 171],30 to 100
2,Oc1ccncc1-c1nc(-c2c(O)cccc2Cl)n2ccccc12 [Compound 172],30 to 100
3,Oc1cnccc1-c1nc(-c2ccccc2O)n2ccncc12 [Compound 174],> 150
4,Oc1cnccc1-c1nc(-c2cccc(F)c2O)n2ccncc12 [Compound 175],> 150
5,Cc1cccc(-c2nc(-c3ccncc3O)c3cnccn23)c1O [Compound 177],> 150
6,Oc1cnccc1-c1nc(-c2cc(F)ccc2O)n2ccncc12 [Compound 178],> 150
7,Oc1cnccc1-c1nc(-c2cc(Cl)ccc2O)n2ccncc12 [Compound 179],> 150
8,Cc1ccc(O)c(-c2nc(-c3ccncc3O)c3cnccn23)c1 [Compound 180],> 150
9,Oc1cnccc1-c1nc(-c2ccccc2O)n2ncccc12 [Compound 181],100 to 150
10,Cc1ccc(O)c(-c2nc(-c3ccncc3O)c3cccnn23)c1 [Compound 182],30 to 100
11,Oc1cnccc1-c1nc(-c2ccccc2O)n2cccnc12 [Compound 185],100 to 150
12,Cc1ccc(O)c(-c2nc(-c3ccncc3O)c3ncccn23)c1 [Compound 186],30 to 100
